ChEMBL document CHEMBL5038588 (J Med Chem, 2021)
One block for each molecule: values may come before it.

Assays:
BaF3 [1] = assay: Inhibition of cell proliferation in mouse BaF3 cells expressing BCR-ABL T315I mutant assessed as cell viability at 100 uM measured after 48 hrs by trypan blue based assay (RVB=100%); type: functional; settings: read-out: Activity
BaF3 [2] = assay: cells; settings: Mus musculus, BaF3, 48 h
Description: Cytotoxicity against mouse BAF3 cells expressing BCR-ABL T315I mutant assessed as inhibition of cell growth measured after 48 hrs by trypan blue assay

K562 = assay: cells; settings: Homo sapiens, K562, 72 h
Description: Cytotoxicity against human K562 cells assessed as cell growth inhibition measured after 72 hrs by MTT assay

U-937 = assay: Cytotoxicity against human U-937 cells assessed as inhibition of cell growth measured after 72 hrs by MTT assay; type: functional, cell-based; settings: U-937, 72 h
Jurkat = assay: Cytotoxicity against human Jurkat cells assessed as inhibition of cell growth measured after 72 hrs by MTT assay; type: functional, cell-based
BaF3 [3] = assay: cells; settings: Mus musculus, BaF3, 72 h
Description: Cytotoxicity against mouse BAF3 cells expressing native BCR-ABL assessed as inhibition of cell growth measured after 72 hrs by MTT assay

KU812 cell line = assay: Cytotoxicity against human KU812 cells assessed as inhibition of cell growth measured after 72 hrs by MTT assay; type: functional, cell-based; settings: KU812, 72 h

Compound: Cc1ccc(-c2nc3ccc(CN4CCN(C)CC4)cc3[nH]2)cc1C#Cc1ccc(NC2CCC2)nn1
viability at 100 µM (BaF3 [1]): 110%

Compound: CN1CCN(Cc2ccc(NC(=O)N3CCC(C#Cc4cnc5cccnn45)C3)cc2C(F)(F)F)CC1 (stereo unspecified)
viability at 100 µM (BaF3 [1]): 91.9%

Compound: CN1CCN(Cc2ccc3nc(-c4ccc(Cl)c(C#Cc5ccc(NC6CCC6)nn5)c4)[nH]c3c2)CC1
viability at 100 µM (BaF3 [1]): 97.4%

Compound: Cc1ccc(-c2nc3ccc(CN4CCN(C)CC4)cc3[nH]2)cc1C#Cc1ccc(NC(C)C)nn1
viability at 100 µM (BaF3 [1]): 96.5%

Compound: Cc1ccc(C(=O)Nc2ccc3c(c2)C(F)(F)C(N2CCN(C)CC2)C3)cc1C#Cc1cnc2cccnn12 (stereo unspecified)
viability at 100 µM (BaF3 [1]): 91.5%

Compound: Cc1ccc(-c2nc3ccc(CN4CCN(C)CC4)cc3[nH]2)cc1C#Cc1ccc(NC2CC2)nn1
viability at 100 µM (BaF3 [1]): 88.9%

IC50 (BaF3 [2]): > 100 nM
IC50 (K562): 82.9 nM
IC50 (BaF3 [3]): > 100 nM
Compound: Cc1ccc(NC(=O)c2ccc(CN3CCN(C)CC3)cc2)cc1Nc1nccc(-c2cccnc2)n1 [IMATINIB]
IC50 (U-937): > 1000 nM
IC50 (Jurkat): > 1000 nM
IC50 (KU812 cell line): 51.3 nM

Compound: CN1CCN(Cc2ccc3nc(-c4ccc(Cl)c(C#Cc5cnc6cccnn56)c4)[nH]c3c2)CC1
viability at 100 µM (BaF3 [1]): 94.5%

IC50 (BaF3 [2]): > 100 nM
IC50 (K562): 1.8 nM
IC50 (BaF3 [3]): 11.8 nM
Compound: Cc1cn(-c2cc(NC(=O)c3ccc(C)c(Nc4nccc(-c5cccnc5)n4)c3)cc(C(F)(F)F)c2)cn1 [NILOTINIB]
IC50 (U-937): > 1000 nM
IC50 (Jurkat): > 1000 nM
IC50 (KU812 cell line): 1.8 nM

Compound: Cc1ccc(-c2nc3ccc(CN4CCN(C)CC4)cc3[nH]2)cc1C#Cc1cnc(NC2CC2)nc1
viability at 100 µM (BaF3 [1]): 90.4%

IC50 (BaF3 [2]): 12.4 nM
IC50 (K562): 0.6 nM
IC50 (BaF3 [3]): 3.5 nM
Compound: Cc1ccc(C(=O)Nc2ccc3c(c2)C(F)(F)C[C@@H]3N2CCN(C)CC2)cc1C#Cc1cnc(NC2CC2)nc1
IC50 (U-937): 165 nM
IC50 (Jurkat): 280 nM
IC50 (KU812 cell line): 0.2 nM
